Earlier results in PubChem BioAssay AID1259410 (Chemical Carcinogenesis Research Information System (CCRIS), 2018).

Test system: rodent tumor promotion studies, tumor incidence
Assay: CCRIS tumor promotion studies

What does the source list for `Oc1ccccc1O`?
outcome (Carcinogen: DIETHYLNITROSAMINE, 55-18-5, N-METHYL-N-NITROSOUREA, 684-93-5, 1,2-DIMETHYLHYDRAZINE, 540-73-8, N-BUTYL-N-(4-HYDRO, Carcinogen: DIETHYLNITROSAMINE, 55-18-5, N-METHYL-N-NITROSOUREA, 684-93-5, 1,2-DIMETHYLHYDRAZINE, 540-73-8, N-BUTYL-N-(4-HYDRO, Doses [Carcinogen]: 100 MG/KG BW DEN ONCE THEN 20 MG/KG BW MNU 1/D FOR 4 D FOLLOWED BY 40 MG/KG BW DMH 1/D FOR 4 D, 0.05% BHBN IN DRINKING W, Doses [Promoter]: 0, 0.8% IN DIET FOR 24 WK BEGINNING 3 D POST CARCINOGEN TREATMENT (STUDY DURATION: 28 WK), Route [Carcinogen]: INTRAPERITONEAL, INTRAPERITONEAL, SUBCUTANEOUS, ORAL, Route [Carcinogen]: INTRAPERITONEAL, INTRAPERITONEAL, SUBCUTANEOUS, ORAL, Route [Promoter]: ORAL, Species: RAT, Strain/Sex: F344/MALE): forestomach: papilloma, squamous cell carcinoma; glandular stomach: adenoma, ade; outcome (Carcinogen: DIETHYLNITROSAMINE, 55-18-5, N-METHYLNITROSOUREA, 684-93-5, 1,2-DIMETHYLHYDRAZINE, 540-73-8, N-BUTYL-N-(4-HYDROXYBUTYL)N, Carcinogen: DIETHYLNITROSAMINE, 55-18-5, N-METHYLNITROSOUREA, 684-93-5, 1,2-DIMETHYLHYDRAZINE, 540-73-8, N-BUTYL-N-(4-HYDROXYBUTYL)N, Doses [Carcinogen]: 100 MG/KG BW DEN ONCE FOLLOWED BY 20 MG/KG BW MNU 2/WK FOR 2 WK THEN 40 MG/KG BW DMH 2/WK FOR THE NEXT 2WK, 0.05% BBN IN, Doses [Promoter]: 0, 0.16% IN DIET FOR 24 WK BEGINNING POST CARCINOGEN TREATMENT (STUDY DURATION: 28 WK), Route [Carcinogen]: INTRAPERITONEAL, INTRAPERITONEAL, SUBCUTANEOUS, ORAL, Route [Carcinogen]: INTRAPERITONEAL, INTRAPERITONEAL, SUBCUTANEOUS, ORAL, Route [Promoter]: ORAL, Species: RAT, Strain/Sex: F344/MALE): forestomach: papilloma; outcome (Carcinogen: DIETHYLNITROSAMINE, 55-18-5, N-METHYLNITROSOUREA, 684-93-5, DIHYDROXY-DI-N- PROPYLNITROSAMINE, 53609-64-6, Carcinogen: DIETHYLNITROSAMINE, 55-18-5, N-METHYLNITROSOUREA, 684-93-5, DIHYDROXY-DI-N- PROPYLNITROSAMINE, 53609-64-6, Doses [Carcinogen]: 100 MG/KG/BW DEN ONCE AT BEGINNING OF STUDY THEN 20 MG/KG/BW MNU ONCE ON D 2, 5, 8 AND 11 OF STUDY FOLLOWED BY 0.1% DHPN, Doses [Promoter]: 0, 0.8% IN DIET BEGINNING POST CARCINOGEN TREATMENT AND CONTINUING FOR DURATION OF STUDY (STUDY DURATION: 20 WK), Route [Carcinogen]: INTRAPERITONEAL, INTRAPERITONEAL, ORAL, Route [Carcinogen]: INTRAPERITONEAL, INTRAPERITONEAL, ORAL, Route [Promoter]: ORAL, Species: RAT, Strain/Sex: F344/MALE): forestomach: squamous cell papilloma; outcome (Carcinogen: METHYL-N-AMYLNITROSAMINE, 13256-07-0, Doses [Carcinogen]: 25 MG/KG AT WK 0, WK 1, AND WK 2 (TOTAL 3 TREATMENTS), Doses [Promoter]: 0, 0.8% IN DIET FOR 49 WK BEGINNING 1 WK POST CARCINOGEN DOSE (STUDY DURATION: 5 WK), Route [Carcinogen]: INTRAPERITONEAL, Route [Promoter]: ORAL, Species: RAT, Strain/Sex: F344/MALE): tongue: papilloma; esophagus: carcinoma; outcome (Carcinogen: N-METHYL-N'-NITRO-N-NITROSOGUANIDINE, 70-25-7, Doses [Carcinogen]: 150 MG/KG ONCE, Doses [Promoter]: 0, 0.8% IN DIET BEGINNING 1 WK POST CARCINOGEN DOSE (STUDY DURATION: 52 WK), Route [Carcinogen]: GAVAGE, Route [Promoter]: ORAL, Species: RAT, Strain/Sex: F344): forestomach: carcinoma; glandular stomach: adenocarcinoma; outcome (Carcinogen: N-METHYL-N-NITROSOUREA, 684-93-5, Doses [Carcinogen]: 120 PPM IN DRINKING WATER FOR 1-WK PERIODS EVERY OTHER WEEK FOR A TOTAL OF 3 WK OF TREATMENT, Doses [Promoter]: 0, 0.05, 0.2, 0.8% IN DIET FOR 30 WK BEGINNING POST CARCINOGEN TREATMENT (STUDY DURATION: 35 WK), Doses [Promoter]: 0, 0.05, 0.2, 0.8% IN DIET FOR 30 WK BEGINNING POST CARCINOGEN TREATMENT (STUDY DURATION: 35 WK), Route [Carcinogen]: ORAL, Route [Promoter]: ORAL, Species: MOUSE, Strain/Sex: BALB/MALE): glandular stomach: adenoma; outcome (Carcinogen: N-METHYL-N-NITROSOUREA, 684-93-5, Doses [Carcinogen]: 120 PPM IN DRINKING WATER FOR 1-WK PERIODS EVERY OTHER WK FOR A TOTAL OF 3 WK OF TREATMENT, Doses [Promoter]: 0, 0.8% IN DIET FOR 30 WK BEGINNING POST CARCINOGEN TREATMENT (STUDY DURATION: 35 WK), Route [Carcinogen]: ORAL, Route [Promoter]: ORAL, Species: MOUSE, Strain/Sex: BALB/MALE): glandular stomach: adenocarcinoma

For `Oc1ccc(O)cc1`, which outcome (Carcinogen: N-ETHYL-N-HYDROXYETHYLNITROSAMINE, 13147-25-6, Doses [Carcinogen]: 0.1% IN DRINKING WATER FOR 3 WK, Doses [Promoter]: 0, 0.8% IN DIET FOR 36 WK BEGINNING 1 WK POST CARCINOGEN TREATMENT (STUDY DURATION: 40 WK), Route [Carcinogen]: ORAL, Route [Promoter]: ORAL, Species: RAT, Strain/Sex: WISTAR/MALE) is on record?
Its outcome is “kidney: microadenoma, renal cell tumor”.

What about the outcome (Carcinogen: N-METHYL-N-NITROSOUREA [684-93-5], Doses [Carcinogen]: 20 MG/KG BW ONCE ON DAY 9 AFTER BIRTH (STUDY DURATION: 28 WK), Doses [Promoter]: 0.8% IN DIET FOR 26 WK BEGINNING 2 WK POST LAST CARCINOGEN DOSE (STUDY DURATION: 28 WK), Route [Carcinogen]: INTRAPERITONEAL, Route [Promoter]: ORAL, Species: MOUSE, Strain/Sex: ICR (CD-1)/FEMALE) of the same molecule?
The outcome was “lung: adenoma”.

What about the outcome (Carcinogen: N-METHYL-N-NITROSOUREA [684-93-5], Doses [Carcinogen]: 20 MG/KG BW ONCE ON DAY 9 AFTER BIRTH (STUDY DURATION: 28 WK), Doses [Promoter]: 0.8% IN DIET FOR 26 WK BEGINNING 2 WK POST LAST CARCINOGEN DOSE (STUDY DURATION: 28 WK), Route [Carcinogen]: INTRAPERITONEAL, Route [Promoter]: ORAL, Species: MOUSE, Strain/Sex: ICR (CD-1)/MALE) of the same molecule?
The outcome was “lung: carcinoma”.

For `OCl`, which outcome (Carcinogen: 4-NITROQUINOLINE-1-OXIDE, Doses [Carcinogen]: TOP, Route [Carcinogen]: DERMAL, Route [Promoter]: DERMAL, Species: MOUSE, Strain/Sex: FEMALE) is on record?
Its outcome is “integumentary system (skin)”.

For `CCCCCCCC/C=C\CCCCCCCC(=O)OC1CC2CCC1(C)C2(C)C` (centres undefined), which outcome (Carcinogen: 7,12-DIMETHYLBENZ(A)ANTHRACENE, Doses [Carcinogen]: TOP, Route [Carcinogen]: DERMAL, Route [Promoter]: DERMAL, Species: MOUSE, Strain/Sex: FEMALE) is on record?
Its outcome is “integumentary system (skin)”.

For `CC(C)NCC(O)c1ccc(O)c(O)c1` (centres undefined), which outcome (Carcinogen: N-NITROSOMORPHOLINE, 59-89-2, Doses [Carcinogen]: 175 MG/L IN DRINKING WATER FOR 8 WK, Doses [Promoter]: 0, 0.1 MG/KG BW IN OLIVE OIL 1/2 D FOR 13 WK BEGINNING SIMULTANEOUSLY WITH CARCINOGEN TREATMENT (STUDY DURATION: 13 WK), Route [Carcinogen]: ORAL, Route [Promoter]: SUBCUTANEOUS, Species: RAT, Strain/Sex: SPRAGUE-DAWLEY/MALE) is on record?
Its outcome is “liver: carcinoma”.

For `CCOC(=O)C(C)(C)Oc1ccc(Cl)cc1`, which outcome (Carcinogen: DIETHYLNITROSAMINE [55-18-5], Doses [Carcinogen]: 200 MG/KG BW ONCE (STUDY DURATION: 24 WK), Doses [Promoter]: 0, 3000 PPM IN DIET FOR 22 WK BEGINNING 2 WK POST CARCINOGEN DOSE AND 1 WK PRIOR TO 2/3 PARTIAL HEPATECTOMY (STUDY DURAT, Route [Carcinogen]: INTRAPERITONEAL, Route [Promoter]: ORAL, Species: RAT, Strain/Sex: F344/MALE) is on record?
The outcome was “liver: hepatocellular adenoma”.

And the outcome (Carcinogen: DIETHYLNITROSAMINE [55-18-5], Doses [Carcinogen]: 200 MG/KG BW ONCE (STUDY DURATION: 48 WK), Doses [Promoter]: 0, 3000 PPM IN DIET FOR 46 WK BEGINNING 2 WK POST CARCINOGEN DOSE AND 1 WK PRIOR TO 2/3 PARTIAL HEPATECTOMY (STUDY DURAT, Route [Carcinogen]: INTRAPERITONEAL, Route [Promoter]: ORAL, Species: RAT, Strain/Sex: F344/MALE)?
Its outcome is “liver: hepatocellular adenoma”.

And the outcome (Carcinogen: DIETHYLNITROSAMINE [55-18-5], Doses [Carcinogen]: 200 MG/KG BW ONCE (STUDY DURATION: 52 WK), Doses [Promoter]: 0, 3000 PPM IN DIET FOR 46 WK BEGINNING 2 WK POST CARCINOGEN DOSE AND 1 WK PRIOR TO 2/3 PARTIAL HEPATECTOMY (STUDY DURAT, Route [Carcinogen]: INTRAPERITONEAL, Route [Promoter]: ORAL, Species: RAT, Strain/Sex: F344/MALE)?
Its outcome is “liver: hepatocellular adenoma”.

What about the outcome (Carcinogen: DIETHYLNITROSAMINE, 55-18-5, Doses [Carcinogen]: 10 MG/KG IN SALINE ONCE 24 HR AFTER RECEIVING 70% PARTIAL HEPATECTOMIES, Doses [Promoter]: 0, 0.01% IN DIET FOR DURATION OF STUDY BEGINNING 2 WK POST CARCINOGEN DOSE (STUDY DURATION: 18 MO), Route [Carcinogen]: GAVAGE, Route [Promoter]: ORAL, Species: RAT, Strain/Sex: SPRAGUE-DAWLEY/FEMALE) of the same molecule?
The outcome was “liver: hepatocellular carcinoma”.

And the outcome (Carcinogen: DIETHYLNITROSAMINE, 55-18-5, Doses [Carcinogen]: 100 PPM IN DRINKING WATER FOR 2 WK, Doses [Promoter]: 0, 0.5% IN DIET BEGINNING 1 WK POST LAST CARCINOGEN DOSE AND CONTINUING FOR DURATION OF STUDY (STUDY DURATION: 32 WK), Route [Carcinogen]: ORAL, Route [Promoter]: ORAL, Species: RAT, Strain/Sex: WISTAR/MALE)?
The outcome was “liver: hepatocellular carcinoma”.

What about the outcome (Carcinogen: DIETHYLNITROSAMINE, 55-18-5, Doses [Carcinogen]: 150 MG/KG BW ONCE, Doses [Promoter]: 0, 0.1% IN DIET FOR 37 WK BEGINNING 2 WK POST CARCINOGEN TREATMENT (STUDY DURATION: 39 WK), Route [Carcinogen]: INTRAPERITONEAL, Route [Promoter]: ORAL, Species: RAT, Strain/Sex: F344/MALE) of the same molecule?
Its outcome is “liver: adenoma”.
